Laboratory results as given in US7390896B2, “Cyclic malonamides as inhibitors of Aβ protein production” (Bristol-Myers Squibb Pharma Corporation, priority 2000, dated 2008).

melting point | Structure (SMILES)
212 to 214 °C | CN1C(=O)[C@@H](NC(=O)C2(NC(=O)Cc3cc(F)cc(F)c3)CC2)N=C(c2ccccc2)c2ccccc21
112 to 117 °C | CN1C(=O)[C@@H](NC(=O)C2(NC(=O)Cc3cc(F)cc(F)c3)CCCC2)N=C(c2ccccc2)c2ccccc21
126 to 129 °C | CN1C(=O)[C@@H](NC(=O)C2(NC(=O)Cc3cc(F)cc(F)c3)CCCCC2)N=C(c2ccccc2)c2ccccc21

Second part, the molecule before the results:

Structure (SMILES) | melting point
CN1C(=O)[C@@H](NC(=O)C2(NC(=O)CCC3CCCC3)CCCCC2)N=C(c2ccccc2)c2ccccc21 | 88 to 103 °C
CC(C)CCC(=O)NC1(C(=O)NC2N=C(C(C)(C)C)c3ccccc3N(C)C2=O)CCCC1 (stereo not shown) [Example 61, N-((N-[5-(tert-Butyl)-1-methyl-2-oxo(3H-benzo[f]1,4-diazepin-3-yl)]carbamoyl)cyclopentyl)-4-methylpentanamide] | 175 to 178 °C
CCCCC1=NC(NC(=O)C2(NC(=O)CCC(C)C)CCCC2)C(=O)N(Cc2ccccn2)c2ccccc21 (stereo not shown) [Example 63, N-({N-[5-Butyl-2-oxo-1-(2-pyridylmethyl)(3H-benzo[f]1,4-diazepin-3-yl)]carbamoyl}cyclopentyl)-4-methylpentanamide] | 63 to 67 °C
CCCCN1C(=O)C(NC(=O)C2(NC(=O)CCC(C)C)CCCC2)N=C(C(C)(C)C)c2ccccc21 (stereo not shown) [Example 62, N-({N-[5-(tert-Butyl)-1-butyl-2-oxo(3H-benzo[f]1,4-diazepin-3-yl)]carbamoyl}cyclopentyl)-4-methylpentanamide] | 175 to 177 °C
